The text below walks through data of patent publication US8278455B2, “5- or 6-substituted benzimidazole derivatives as inhibitors of respiratory syncytial virus replication” (Janssen Pharmaceutica N.V., priority 2003, dated 2012).

In data set [1] the test system is Respiratory Syncytial Virus. Put plainly: In vitro screening for activity against Respiratory Syncytial Virus (MTT tetrazolium colorimetric assay, HeLa cells). The format is cell-based. The settings on record: human respiratory syncytial virus, 168 h; protection against RSV cytopathology in HeLa cells, 7 days after infection; pEC50 = −log of EC50 in molar units. The essentials:
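HeLa cells (4×10^5 cells/ml) added 2 h after ~100 TCID50 RSV to wells holding five-fold compound dilutions, in Eagle's medium with 5% FCS and 20 mM Hepes; mock-infected rows gave cytotoxicity. After 7 days at 37 °C, MTT read at 540 minus 690 nm; EC50/CC50 from dose-response, reported as pEC50 categories.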

With `Cc1ccc(O)c(Cn2c(NC3CCN(CCN)CC3)nc3ccc(C=Cc4ccccc4)cc32)n1.Cl` (hydrate or solvate) [Compound 146, 2-{2-[1-(2-Amino-ethyl)-piperidin-4-ylamino]-6-styryl-benzoimidazol-1-ylmethyl}-6-methyl-pyridin-3-ol hydrochloride salt], the melting point was over 260 °C.

With `Cc1cccc(CNc2ccc3nc(NC4CCN(C)CC4)n(Cc4nc(C)ccc4O)c3c2)c1` [Compound 28, 6-methyl-2-[6-(3-methyl-benzylamino)-2-(1-methyl-piperidin-4-ylamino)-benzoimidazol-1-ylmethyl]-pyridin-3-ol], the melting point was found to be 240 °C. Further, the EC50 in data set [1] was 15.8 nM.

On to `Cc1cccc(SCc2ccc3nc(NC4CCN(C)CC4)n(Cc4nc(C)ccc4O)c3c2)c1` [Compound 93, 6-methyl-2-[2-(1-methyl-piperidin-4-ylamino)-6-m-tolylsulfanylmethyl-benzoimidazol-1-ylmethyl]-pyridin-3-ol], for which the melting point came to 202 °C. The compound further gave an EC50 in data set [1] of 251 nM.

The compound `Cc1ccc(O)c(Cn2c(NC3CCN(C)CC3)nc3ccccc32)n1` [Compound 101] yielded a melting point of over 260 °C. The compound also had an EC50 in data set [1] of 398 nM.

For `Cc1cccc(NC(=O)c2ccc3nc(NC4CCN(C)CC4)n(Cc4nc(C)ccc4O)c3c2)c1` [Compound 116, 3-(3-hydroxy-6-methyl-pyridin-2-ylmethyl)-2-(1-methyl-piperidin-4-ylamino)-3H-benzoimidazole-5-carboxylic acid m-tolylamide], the melting point was determined as 172 °C. The same compound showed an EC50 in data set [1] of 7940 nM.

`Cc1ccc(O)c(Cn2c(NC3CCN(CCN)CC3)nc3ccc(CCc4ccccc4)cc32)n1.Cl` [Compound 143, 2-{2-[1-(2-amino-ethyl)-piperidin-4-ylamino]-6-phenethyl-benzoimidazol-1-ylmethyl}-6-methyl-pyridin-3-ol hydrochloride salt] had a melting point of 181 °C. The EC50 in data set [1] was 1 nM.

On to `Cc1ccc(O)c(Cn2c(NC3CCN(CCN)CC3)nc3ccc(C=Cc4ccccc4)cc32)n1.Cl` [Compound 146, 2-{2-[1-(2-Amino-ethyl)-piperidin-4-ylamino]-6-styryl-benzoimidazol-1-ylmethyl}-6-methyl-pyridin-3-ol hydrochloride salt], for which the melting point turned out to be 260 °C. This compound had an EC50 in data set [1] of 1.26 nM.

In turn, `Cc1cccc(C(N)c2ccc3nc(NC4CCN(CCO)CC4)n(Cc4nc(C)ccc4O)c3c2)c1` (centres unmarked) [Compound 148, 2-[2-[1-(2-hydroxy-ethyl)-piperidin-4-ylamino]-6-(m-tolyl-amino-methyl)-benzoimidazol-1-ylmethyl]-6-methyl-pyridin-3-ol] gave a melting point of 137 °C.

As to `Cc1ccc(O)c(Cn2c(NC3CCN(CCO)CC3)nc3ccc(CCCN)cc32)n1.Cl` [Compound 160, 2-{6-(3-Amino-propyl)-2-[1-(2-hydroxy-ethyl)-piperidin-4-ylamino]-benzoimidazol-1-ylmethyl}-6-methyl-pyridin-3-ol hydrochloride salt], the melting point is 185 °C. Moreover, a half-maximal effect in data set [1] (EC50) was put at 12.6 nM.

`Cc1cccc(NCc2cc(C)c3nc(NC4CCN(CCO)CC4)n(Cc4nc(C)ccc4O)c3c2)c1` [Compound 171, 2-[2-[1-(2-Hydroxy-ethyl)-piperidin-4-ylamino]-4-methyl-6-(m-tolylamino-methyl)-benzoimidazol-1-ylmethyl]-6-methyl-pyridin-3-ol]: the melting point worked out at 123 °C. In data set [1], this compound had an EC50 of 3.16 nM.

Compound `Cc1cc(C)cc(NCc2ccc3nc(NCCCN4CCCCC4)n(Cc4nc(C)ccc4O)c3c2)c1` [Compound 173, 2-[6-[(3,5-dimethyl-phenylamino)-methyl]-2-(3-piperidin-1-yl-propylamino)-benzoimidazol-1-ylmethyl]-6-methyl-pyridin-3-ol] gave a melting point of 161 °C. Also, in data set [1], the EC50 is 1.58 nM.

The compound `Cc1cc(C)cc(NCc2ccc3nc(NCCCN4CCN(C)CC4)n(Cc4nc(C)ccc4O)c3c2)c1` [Compound 174, 2-{6-[(3,5-Dimethyl-phenylamino)-methyl]-2-[3-(4-methyl-piperazin-1-yl)-propylamino]-benzoimidazol-1-ylmethyl}-6-methyl-pyridin-3-ol] gave a melting point of 150 °C. Besides, the EC50 in data set [1] is 3.98 nM.

As to `Cc1cc(C)cc(NCc2ccc3nc(NCC(O)CO)n(Cc4nc(C)ccc4O)c3c2)c1` (centres unmarked) [Compound 175, 3-[6-[(3,5-dimethyl-phenylamino)methyl]-1-(3-hydroxy-6-methyl-pyridin-2-ylmethyl)-1H-benzoimidazol-2-ylamino]-propane-1,2-diol], the melting point was determined as 128 °C. This compound also showed an EC50 in data set [1] of 31.6 nM.

As for `COc1ccc(CCNc2nc3ccc(CNc4cc(C)cc(C)c4)cc3n2Cc2nc(C)ccc2O)cc1` [Compound 190, 2-{6-[(3,5-Dimethyl-phenylamino)-methyl]-2-[2-(4-methoxy-phenyl)-ethylamino]-benzoimidazol-1-ylmethyl}-6-methyl-pyridin-3-ol], the melting point was found to be 178 °C. In data set [1], this compound came in with an EC50 of over 100000 nM.
